In patent US20220241378A1, “COMPOSITIONS AND METHODS FOR TREATMENT OF CHRONIC GRANULOMATOUS DISEASE” (priority 2019, published 2022):

Tested on: C57BL/6 and p47phox-/- mice infected intranasally with A. fumigatus conidia
Assay: Lung inflammation model: C57BL/6 and p47phox-/- mice infected intranasally with A. fumigatus
Assay type: in vivo
Conditions: p47phox-/- aspergillosis mice
Experimental: In vivo models mimicking human pathology such as lung and gut inflammation were prepared. A model of lung inflammation was tested using C57BL/6 and p47phox-/- mice. The mice were infected with A. fumigatus intranasally and treated them with Tβ4 for 7 consecutive days starting a week after the infection. LC3-II (FIG. 1F) and DAPK1 (FIG. 1G) expression were both defective in p47phox-/- mice, but restored by Tβ4 and ablated (LC3-II) upon siTβ4 (FIGS. 10A and 10B). In addition, gut inflammation was tested using the same mouse model. Acute colitis in p47phox-/- mice was initiated by administering […] in drinking water for 7 days followed by 7 days of DSS-free autoclaved water. Subsequently, Tβ4 was therapeutically administered daily for 7 days, after DSS treatment, at the time at which mice started to lose weight. Consistent with previous findings (de Luca et al., 2014), LC3-II (FIG. 1H) and DAPK1 (FIG. 1I) expression were both defective in the colon ofp47phox-/- mice with colitis as opposed to WT mice but restored upon treatment with T134 (FIGS. 1H and 1I). DAPK1 expression in colon lysates of C57BL/6 and p47^phox-/- mice subjected to DSS-induced colitis for a week and treated intraperitoneally with 5 mg/kg Tβ4 for 7 consecutive days after DSS treatment, n=6-10 mice per group. Data are presented as mean ±SD and are representative of two experiments. Mice were categorized as Naive (uninfected or untreated mice) or None (infected mice). For immunoblotting, normalization was performed on mouse β-actin or Gapdh and corresponding pixel density or ratio is depicted. For immunofluorescence, nuclei were counterstained with DAPI. Photographs were taken with a high-resolution microscope (Olympus BX51), 40× and 100× magnification. LC3 mean fluorescence intensity (MFI) was measured with the ImageJ software. In FIGS. 1F-1H, n=6-10 mice per group. Data are presented as mean ±SD and are representative of two experiments. Naïve, uninfected or untreated mice. None, infected mice.
Viable conidia from the A. fumigatus Af293 strain were obtained as described (De Luca et al., 2012). Mice were anesthetized in a plastic cage by inhalation of 3% isoflurane (Forane Abbot) in oxygen before intranasal instillation of 2×10^7 resting conidia/20 μl saline. For survival curves, p47^phox-/- mice were challenged with […] conidia/20 μl saline. Tβ4 was administered intraperitoneally (i.p.) at the dose of 5 mg/kg at an effective dose as described (Badamchian et al., Thymosin beta(4) reduces lethality and down-regulates inflammatory mediators in endotoxin-induced septic shock. Int Immunopharmacol, 2003 3(8): p. 1225-33), every day in concomitance with (days 0→7) or after (days 7→14) infection. DMOG (Merck Millipore) was administered i.p. at the dose of 8 mg/mouse concomitantly to the infection. For Hif1a silencing, each mouse received intranasal administration of 10 mg/kg unmodified siRNA [Duplex name mm.Ri.Hif1a.13.1 (IDT); 5′-[…]-3′; 3′-[…] -5′] and Tmsb4x silencing [Duplex name mm.Ri.Tmsb4x.13.1; 5′-[…]-3′; 3′-[…] -5′], or equivalent dose of nonspecific control siRNA duplex in a volume of 20 μl of duplex buffer (IDT). Intranasal siRNA was given once the day before infection and 1, 3 and 5 days after infection (Iannitti et al., 2013 Hypoxia promotes danger-mediated inflammation via receptor for advanced glycation end products in cystic fibrosis. Am J Respir Crit Care Med 188:1338-1350). It is known that lung-specific siRNA delivery can be achieved by intranasal administration without the use of viral vectors or transfection agents in vivo (Iannitti et al., 2013 Th17/Treg imbalance in murine cystic fibrosis is linked to indoleamine 2,3-dioxygenase deficiency but corrected by kynurenines. Am J Respir Crit Care Med 187:609-620). Mice were sacrificed 7 or 14 days post infection. Fungal burden was determined by qPCR and expressed as conidial equivalents (CE). Lung tissue was aseptically removed and homogenized in 3 ml of sterile saline. […]

SMILES: COC(=O)CNC(=O)C(=O)OC [DMOG, dimethyloxalylglycine, reference compound]
- fungal burden (DMOG for 5 days (FIG. 7A)): reduced
- lung pathology (DMOG for 5 days (FIG. 7B)): ameliorated
- HIF-1α expression (DMOG for 5 days (FIG. 7C)): increased
- HIF-1α-responsive genes (DMOG for 5 days (FIG. 7D)): up-regulated
